Laboratory results taken from patent US20050245399A1, “Pyrazole derivatives as herbicidal compositions containing them” (ISHIHARA SANGYO KAISHA, LTD., priority 2004, published 2005).

Legend:
Assay type in all cases: in vivo
[1] = system: prickly sida (Sida spinosa L.): SEDSP; experiment: Test Example 1 pre-emergence herbicidal activity, SIDSP; details: visually observed 20th to 23rd day after application
Source text: (§1) Upland field soil was put into a 1/170,000 ha pot, and seeds of various plants {1. barnyardgrass (Echinochloa crus-galli L.): ECHCG, 2. crabgrass (Digitaria sanguinalis L.): DIGSA, 3. green foxtail (Setaria viridis L.): SETVI, 4. redroot pigweed (Amaranthus retroflexus L.): AMARE, 5. prickly sida (Sida spinosa L.): SEDSP, 6. velvetleaf (Abutilon theophrasti): ABUTH, 7. common cocklebur (Xanthium strumarium L.): XANST, 8. rice (Oryza sativa L.): ORYSA, 9. wheat (Triticum aestivum L.): TRZAX, 10. corn (Zea mays L.): ZEAMX, 11. soybean (Glycine max Merr.): GLXMA} were sown. Then, one day after the sowing, a wettable powder or emulsifiable concentrate having the compound of the present invention formulated in accordance with a usual formulation method, was weighed so that the active ingredient would be a predetermined amount and diluted with water in an amount of 500 L/ha. The herbicide adjusted was applied by a small size sprayer for preemergence treatment. On the 20th to 23rd day after the application of the herbicide, the growth of the respective plants was visually observed, and the herbicidal effects were evaluated by growth controlling degrees (%) ranging from 0 (equivalent to the untreated control) to 100 (complete kill), whereby the results shown in Table 4, were obtained. Compound Nos. in Table 4 correspond to Compound Nos. in Table 1 and 2 given hereinbefore.

[2] = system: soybean (Glycine max Merr.), GLXMA; experiment: Test Example 2 post-emergence (foliage treatment) herbicidal activity, GLXMA; details: 63 g a.i./ha
Source text: (§2) Upland field soil was put into a 1/170,000 ha pot, and seeds of various plants were sown. Then, when the plants reached predetermined leaf stages {1. barnyardgrass (Echinochloa crus-galli L.), ECHCG: 1.1-2.1 leaf stage, 2. crabgrass (Digitaria sanguinalis L.), DIGSA: 1.0-2.0 leaf stage, 3. green foxtail (Setaria viridis L.), SETVI: 1.0-2.2 leaf stage, 4. redroot pigweed (Amaranthus retroflexus L.), AMARE: 0.1-1.5 leaf stage, 5. prickly sida (Sida spinosa L.), SIDSP: 0.1-0.6 leaf stage, 6. velvetleaf (Abutilon theophrasti), ABUTH: 0.1-0.6 leaf stage, 7. common cocklebur (Xanthium strumarium L.), XANST: 0.1 leaf stage, 8. rice (Oryza sativa L.), ORYSA; 1.0-2 leaf stage, 9. wheat (Triticum aestivum L.), TRZAX: 2.3-3.5 leaf stage, 10. corn (Zea mays L.), ZEAMXN 2.1-2.6 leaf stage, 11. soybean (Glycine max Merr.), GLXMA: primary leaf stage}, a wettable powder or emulsifiable concentrate having the compound of the present invention formulated in accordance with a usual formulation method, was weighed so that the active ingredient would be a predetermined amount, and diluted with water in an amount of 500 L/ha. To the diluted solution, 0.1% (v/v) of an agricultural spreader was added. The herbicide adjusted was applied by a small size sprayer for foliage treatment. On the 20th to 23rd day after the application of the herbicide, the growth of the respective plants was visually observed, and the herbicidal effects were evaluated by growth controlling degrees (%) ranging from 0 (equivalent to the untreated control) to 100 (complete kill), whereby the results shown in Table 5, were obtained. Compound Nos. in Table 5 correspond to Compound Nos. in Table 1 and 2 given hereinbefore.

[3] = system: velvetleaf (Abutilon theophrasti), ABUTH; experiment: Test Example 2 post-emergence (foliage treatment) herbicidal activity, ABUTH; details: 63 g a.i./ha
Source text: as §2

[4] = system: green foxtail (Setaria viridis L.): SETVI; experiment: Test Example 1 pre-emergence herbicidal activity, SETVI; details: visually observed 20th to 23rd day after application
Source text: as §1

[5] = system: rice (Oryza sativa L.): ORYSA; experiment: Test Example 1 pre-emergence herbicidal activity, ORYSA; details: visually observed 20th to 23rd day after application
Source text: as §1

[6] = system: crabgrass (Digitaria sanguinalis L.), DIGSA; experiment: Test Example 2 post-emergence (foliage treatment) herbicidal activity, DIGSA; details: 63 g a.i./ha
Source text: as §2

[7] = system: rice (Oryza sativa L.), ORYSA; experiment: Test Example 2 post-emergence (foliage treatment) herbicidal activity, ORYSA; details: 63 g a.i./ha
Source text: as §2

[8] = system: wheat (Triticum aestivum L.): TRZAX; experiment: Test Example 1 pre-emergence herbicidal activity, TRZAX; details: visually observed 20th to 23rd day after application
Source text: as §1

[9] = system: green foxtail (Setaria viridis L.), SETVI; experiment: Test Example 2 post-emergence (foliage treatment) herbicidal activity, SETVI; details: 63 g a.i./ha
Source text: as §2

[10] = system: corn (Zea mays L.): ZEAMX; experiment: Test Example 1 pre-emergence herbicidal activity, ZEAMX; details: visually observed 20th to 23rd day after application
Source text: as §1

[11] = system: soybean (Glycine max Merr.): GLXMA; experiment: Test Example 1 pre-emergence herbicidal activity, GLXMA; details: visually observed 20th to 23rd day after application
Source text: as §1

[12] = system: redroot pigweed (Amaranthus retroflexus L.), AMARE; experiment: Test Example 2 post-emergence (foliage treatment) herbicidal activity, AMARE; details: 63 g a.i./ha
Source text: as §2

[13] = system: corn (Zea mays L.), ZEAMX; experiment: Test Example 2 post-emergence (foliage treatment) herbicidal activity, ZEAMX; details: 63 g a.i./ha
Source text: as §2

[14] = system: barnyardgrass (Echinochloa crus-galli L.), ECHCG; experiment: Test Example 2 post-emergence (foliage treatment) herbicidal activity, ECHCG; details: 63 g a.i./ha
Source text: as §2

[15] = system: velvetleaf (Abutilon theophrasti): ABUTH; experiment: Test Example 1 pre-emergence herbicidal activity, ABUTH; details: visually observed 20th to 23rd day after application
Source text: as §1

[16] = system: wheat (Triticum aestivum L.), TRZAX; experiment: Test Example 2 post-emergence (foliage treatment) herbicidal activity, TRZAX; details: 63 g a.i./ha
Source text: as §2

[17] = system: barnyardgrass (Echinochloa crus-galli L.): ECHCG; experiment: Test Example 1 pre-emergence herbicidal activity, ECHCG; details: visually observed 20th to 23rd day after application
Source text: as §1

[18] = system: crabgrass (Digitaria sanguinalis L.): DIGSA; experiment: Test Example 1 pre-emergence herbicidal activity, DIGSA; details: visually observed 20th to 23rd day after application
Source text: as §1

[19] = system: redroot pigweed (Amaranthus retroflexus L.): AMARE; experiment: Test Example 1 pre-emergence herbicidal activity, AMARE; details: Rate 63 g a.i./ha, visually observed 20th to 23rd day after application
Source text: as §1

Row | SMILES | growth controlling degree, GLXMA [2] | growth controlling degree, ABUTH [3] | growth controlling degree, DIGSP [6] | growth controlling degree, ORYSA [7] | growth controlling degree, SETVI [9] | growth controlling degree, AMARE [12] | growth controlling degree, ZEAMX [13] | growth controlling degree, ECHCO [14] | growth controlling degree, TRZAX [16] | Pre-emergence Herbicidal Activity SIDSP (growth controlling degree) ([1]; Rate 63 g a.i./ha) | Pre-emergence Herbicidal Activity SETVI (growth controlling degree) ([4]; Rate 63 g a.i./ha) | Pre-emergence Herbicidal Activity ORYSA (growth controlling degree) ([5]; Rate 63 g a.i./ha) | Pre-emergence Herbicidal Activity AMARE (growth controlling degree) [19] | Pre-emergence Herbicidal Activity TRZAX (growth controlling degree) ([8]; Rate 63 g a.i./ha) | Pre-emergence Herbicidal Activity ZEAMX (growth controlling degree) ([10]; Rate 63 g a.i./ha) | Pre-emergence Herbicidal Activity GLXMA (growth controlling degree) ([11]; Rate 63 g a.i./ha) | Pre-emergence Herbicidal Activity ABUTH (growth controlling degree) ([15]; Rate 63 g a.i./ha) | Pre-emergence Herbicidal Activity ECHCG (growth controlling degree) ([17]; Rate 63 g a.i./ha) | Pre-emergence Herbicidal Activity DIGSP (growth controlling degree) ([18]; Rate 63 g a.i./ha) | also measured
1 | COc1c(Cl)cc(F)c(-c2nn(C)c(OC(F)F)c2Cl)c1N(C=O)CCOc1ccccc1 [Compound 1-43] | 40% | 100% | 20% | 30% | 70% | 100% | 10% | 40% | 10% |  |  |  |  |  |  |  |  |  |  | Pre-emergence Herbicidal Activity SIDSP (growth controlling degree) ([1]; Rate 125 g a.i./ha): 0%; Pre-emergence Herbicidal Activity SETVI (growth controlling degree) ([4]; Rate 125 g a.i./ha): 0%; Pre-emergence Herbicidal Activity ORYSA (growth controlling degree) ([5]; Rate 125 g a.i./ha): 10%; Pre-emergence Herbicidal Activity TRZAX (growth controlling degree) ([8]; Rate 125 g a.i./ha): 0%; Pre-emergence Herbicidal Activity ZEAMX (growth controlling degree) ([10]; Rate 125 g a.i./ha): 0%; Pre-emergence Herbicidal Activity GLXMA (growth controlling degree) ([11]; Rate 125 g a.i./ha): 0%; Pre-emergence Herbicidal Activity ABUTH (growth controlling degree) ([15]; Rate 125 g a.i./ha): 0%; Pre-emergence Herbicidal Activity ECHCG (growth controlling degree) ([17]; Rate 125 g a.i./ha): 0%; Pre-emergence Herbicidal Activity DIGSP (growth controlling degree) ([18]; Rate 125 g a.i./ha): 10%
2 | COc1c(Cl)cc(F)c(-c2nn(C)c(OC(F)F)c2Cl)c1NC(=O)C(C)(C)OC(C)=O [Compound 1-44] | 40% | 100% | 60% | 50% | 80% | 100% | 10% | 50% | 20% | 100% | 20% | 10% | 100% | 10% | 0% | 0% | 60% | 10% | 100% | 
3 | COc1c(Cl)cc(F)c(-c2nn(C)c(OC(F)F)c2Cl)c1NC(=O)COCc1ccccc1 [Compound 1-45] | 60% | 100% | 70% | 80% | 90% | 100% | 40% | 95% | 40% | 0% | 40% | 30% | 100% | 10% | 0% | 0% | 30% | 0% | 90% | 
